Test results reported in US10280159B2 (AbbVie Deutschland GmbH & Co. KG, priority 2015, dated 2019).
pEC50: −log10 of the molar value.

Tests used:
Type in all cases: cell-based
human S1PR1 = target: T1, human S1PR1 (Homo sapiens, UniProt P21453); assay: Intracellular Ca2+ release (FLIPR) agonist potency, S1P1; conditions: recombinant CHO-K1 cells expressing human S1PR1, aequorin, Gq/i5; Calcium 5 FLIPR; read-out: S1P1 EC50
T1 construct: host or cells: CHO-K1
Method: (§1) Agonistic activity was measured using the method described below.
(§2) Intracellular Ca^2+ Release
(§3) Agonist potency and intrinsic activity was assessed by measurement of intracellular Ca^2+ release. Recombinant CHO-K1 cells (Euroscreen, Brussels, Belgium) expressing human S1PR5, S1PR1, S1PR3 or S1PR4 receptors, aequorin, and GTP binding protein Gq/i5 were cultured using a medium containing nutrient mixture F-12 Ham (Sigma-Aldrich) with 10% FBS, and 100 μg/mL gentamicin and equilibrated at 5% CO2.
(§4) Phospho-fingolimod was used as positive control. Antagonists were pre-incubated for 10 min with cells before addition of the agonist (phospho-fingolimod at EC80). Measurements were performed using a fluorometric imaging plate reader FLIPR®tetra (Molecular Devices). Agonist at the human S1P receptors were characterized by deducing EC50 (potency) values from a nonlinear fit to the measured fluorescence raw data after normalization to the reference agonist (phospho-fingolimod) curve.

human S1PR5 = target: T2, human S1PR5 (Homo sapiens, UniProt Q9H228); assay: Intracellular Ca2+ release (FLIPR) agonist potency, S1P5; conditions: recombinant CHO-K1 cells expressing human S1PR5, aequorin, Gq/i5; Calcium 5 FLIPR; read-out: S1P5 EC50 range
T2 construct: host or cells: CHO-K1
T2 sequence (Q9H228 whole entry): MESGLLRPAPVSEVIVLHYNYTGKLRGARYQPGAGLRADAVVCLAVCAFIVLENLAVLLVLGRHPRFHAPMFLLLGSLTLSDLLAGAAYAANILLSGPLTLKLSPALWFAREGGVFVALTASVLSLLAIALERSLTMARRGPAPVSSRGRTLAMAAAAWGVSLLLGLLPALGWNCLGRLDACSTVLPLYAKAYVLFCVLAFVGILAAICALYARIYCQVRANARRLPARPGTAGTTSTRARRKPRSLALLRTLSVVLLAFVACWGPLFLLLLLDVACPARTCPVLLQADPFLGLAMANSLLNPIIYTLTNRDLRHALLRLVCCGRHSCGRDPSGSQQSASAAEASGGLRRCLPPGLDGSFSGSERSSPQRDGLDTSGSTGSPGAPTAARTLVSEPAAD
Method: as §1, §2, §3, §4

human S1PR4 = target: T3, human S1PR4 (Homo sapiens, UniProt O95977); assay: Intracellular Ca2+ release (FLIPR) agonist potency, S1P4; conditions: recombinant CHO-K1 cells expressing human S1PR4, aequorin, Gq/i5; Calcium 5 FLIPR; read-out: S1P4 EC50
T3 construct: host or cells: CHO-K1
T3 sequence (O95977 1-384): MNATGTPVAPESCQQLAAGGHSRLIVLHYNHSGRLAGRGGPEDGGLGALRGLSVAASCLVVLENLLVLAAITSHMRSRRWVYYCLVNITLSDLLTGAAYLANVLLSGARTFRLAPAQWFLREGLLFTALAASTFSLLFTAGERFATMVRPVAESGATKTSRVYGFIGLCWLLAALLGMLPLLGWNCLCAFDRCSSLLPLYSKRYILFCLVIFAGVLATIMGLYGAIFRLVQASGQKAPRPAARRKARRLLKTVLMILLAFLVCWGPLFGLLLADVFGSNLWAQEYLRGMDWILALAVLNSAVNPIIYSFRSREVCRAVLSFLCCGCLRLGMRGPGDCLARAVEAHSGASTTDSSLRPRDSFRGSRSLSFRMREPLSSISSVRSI
Method: as §1, §2, §3, §4

T1 sequence (P21453 whole entry): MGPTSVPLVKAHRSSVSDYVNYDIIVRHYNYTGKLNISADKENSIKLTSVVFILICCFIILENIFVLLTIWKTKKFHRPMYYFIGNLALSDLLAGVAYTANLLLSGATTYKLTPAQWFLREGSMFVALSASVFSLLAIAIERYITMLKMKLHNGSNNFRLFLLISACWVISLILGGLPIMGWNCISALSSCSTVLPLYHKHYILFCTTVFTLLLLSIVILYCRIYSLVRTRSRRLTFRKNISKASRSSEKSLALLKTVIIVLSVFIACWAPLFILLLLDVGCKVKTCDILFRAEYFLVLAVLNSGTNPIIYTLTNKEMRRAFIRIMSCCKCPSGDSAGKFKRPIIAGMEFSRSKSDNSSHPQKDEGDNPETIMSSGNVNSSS

pEC50 (human S1PR1) | pEC50 (human S1PR5) | pEC50 (human S1PR4) | Compound
< 6.00 | > 8.00 | < 6.00 | CC1(C(=O)O)CN([C@@H]2COc3cc(OCc4c(Cl)cccc4Cl)ccc3C2)C1 [Compound 138, (S)-1-(7-((2,6-dichlorobenzyl)oxy)chroman-3-yl)-3-methylazetidine-3-carboxylic acid]
< 6.00 | 5.00 to 6.00 | < 6.00 | O=C(O)COC1CCc2cc(OCc3c(F)cccc3F)ccc2C1 (stereo not drawn) [Compound 159, 2-[6-[(2,6-difluorophenyl)methoxy]tetralin-2-yl]oxyacetic acid]
< 6.00 | > 8.00 | > 6.00 | CCc1cccc(F)c1COc1ccc2c(c1)OCC(NC1(CC(=O)O)CCCC1)C2 (stereo not drawn) [Compound 117, 2-(1-((7-((2-ethyl-6-fluorobenzyl)oxy)chroman-3-yl)amino)cyclopentyl) acetic acid]
< 6.00 | 5.00 to 6.00 | < 6.00 | COc1ccc(Cl)cc1COc1ccc2c(c1)CCC(OCC(=O)O)C2 (stereo not drawn) [Compound 176, 2-[6-[(5-chloro-2-methoxy-phenyl)methoxy]tetralin-2-yl]oxyacetic acid]
< 6.00 | 5.00 to 6.00 | < 6.00 | O=C(O)C1CN(C2COc3cc(OCC4CC4)ccc3C2)C1 (stereo not drawn) [Compound 231, 1-[7-(cyclopropylmethoxy)chroman-3-yl]azetidine-3-carboxylic acid]
< 6.00 | 5.00 to 6.00 | < 6.00 | O=C(O)CCOC1CCc2cc(OCc3ccc(C(F)(F)F)cc3)ccc2C1 (stereo not drawn) [Compound 183, 3-[6-[[4-(trifluoromethyl)phenyl]methoxy]tetralin-2-yl]oxypropanoic acid]
< 6.00 | 7.00 to 8.00 | < 6.00 | CN(CC(=O)O)C1COc2cc(OCc3ccc(OCc4ccc(Cl)cc4)cc3)ccc2C1 (stereo not drawn) [Compound 135, N-(7-((4-((4-chlorobenzyl)oxy)benzyl)oxy)chroman-3-yl)-N-methylglycine]
< 6.00 | 5.00 to 6.00 | < 6.00 | O=C(O)CCOC1CCc2cc(OCc3cccc(Cl)c3Cl)ccc2C1 (stereo not drawn) [Compound 189, 3-[6-[(2,3-dichlorophenyl)methoxy]tetralin-2-yl]oxypropanoic acid]
< 6.00 | 6.00 to 7.00 | < 6.00 | Cc1c(F)cccc1COc1ccc2c(c1)OCC(N1CC(C(=O)O)C1)C2 (stereo not drawn) [Compound 96, 1-[7-[(3-fluoro-2-methyl-phenyl)methoxy]chroman-3-yl]azetidine-3-carboxylic acid]
< 6.00 | 6.00 to 7.00 | < 6.00 | O=C(O)COC1CCc2cc(OCc3ccccc3C(F)(F)F)ccc2C1 (stereo not drawn) [Compound 196, 2-[6-[[2-(trifluoromethyl)phenyl]methoxy]tetralin-2-yl]oxyacetic acid]
< 6.00 | 5.00 to 6.00 | < 6.00 | O=C(O)C1CN(C2COc3cc(OCCOc4cccc(F)c4)ccc3C2)C1 (stereo not drawn) [Compound 97, 1-[7-[2-(3-fluorophenoxy)ethoxy]chroman-3-yl]azetidine-3-carboxylic acid]
< 6.00 | > 8.00 | < 6.00 | O=C(O)COC1CCc2cc(OCc3c(Cl)cccc3C3CC3)ccc2C1 (stereo not drawn) [Compound 143, 2-((6-((2-chloro-6-cyclopropylbenzyl)oxy)-1,2,3,4-tetrahydronaphthalen-2-yl)oxy)acetic acid]
< 6.00 | > 8.00 | > 6.00 | CCc1cccc(F)c1COc1ccc2c(c1)OCC(N1CC(C(=O)O)C1)C2 (single isomer, unassigned) [Compound 146, 1-(7-((2-ethyl-6-fluorobenzyl)oxy)chroman-3-yl)azetidine-3-carboxylic acid]
< 6.00 | 6.00 to 7.00 | < 6.00 | Cc1ccc(F)c(COc2ccc3c(c2)CCC(OCC(=O)O)C3)c1 (stereo not drawn) [Compound 160, 2-[6-[(2-fluoro-5-methyl-phenyl)methoxy]tetralin-2-yl]oxyacetic acid]
< 6.00 | 5.00 to 6.00 | < 6.00 | O=C(O)COC1CCc2cc(OCc3ccc(F)c(F)c3)ccc2C1 (stereo not drawn) [Compound 212, 2-[6-[(3,4-difluorophenyl)methoxy]tetralin-2-yl]oxyacetic acid]
< 6.00 | 6.00 to 7.00 | < 6.00 | COc1ccc(F)cc1COc1ccc2c(c1)CCC(OCC(=O)O)C2 (stereo not drawn) [Compound 166, 2-[6-[(5-fluoro-2-methoxy-phenyl)methoxy]tetralin-2-yl]oxyacetic acid]

pEC50 (human S1PR1) | pEC50 (human S1PR5) | pEC50 (human S1PR4) | Compound
< 6.00 | 6.00 to 7.00 | > 6.00 | O=C(O)C1(CNC2COc3cc(OCc4c(Cl)cccc4Cl)ccc3C2)CC1 (stereo not drawn) [Compound 49, 1-(((7-((2,6-dichlorobenzyl)oxy)chroman-3-yl)amino)methyl)cyclopropanecarboxylic acid]
< 6.00 | 7.00 to 8.00 | > 6.00 | O=C(O)C1CN(C2COc3cc(OCc4cc(F)cc(C(F)(F)F)c4)ccc3C2)C1 (stereo not drawn) [Compound 90, 1-[7-[[3-fluoro-5-(trifluoromethyl)phenyl]methoxy]chroman-3-yl]azetidine-3-carboxylic acid]
< 6.00 | 5.00 to 6.00 | < 6.00 | O=C(O)COC1CCc2cc(OCc3cccc(F)c3)ccc2C1 (stereo not drawn) [Compound 198, 2-[6-[(3-fluorophenyl)methoxy]tetralin-2-yl]oxyacetic acid]
< 6.00 | 5.00 to 6.00 | < 6.00 | N#Cc1ccc(COc2ccc3c(c2)OCC(N2CC(C(=O)O)C2)C3)c(F)c1 (stereo not drawn) [Compound 89, 1-[7-[(4-cyano-2-fluoro-phenyl)methoxy]chroman-3-yl]azetidine-3-carboxylic acid]
< 6.00 | 5.00 to 6.00 | < 6.00 | Cc1c(COc2ccc3c(c2)CCC(OCC(=O)O)C3)cccc1C(F)(F)F (stereo not drawn) [Compound 200, 2-[6-[[2-methyl-3-(trifluoromethyl)phenyl]methoxy]tetralin-2-yl]oxyacetic acid]
< 6.00 | 5.00 to 6.00 | < 6.00 | O=C(O)COC1CCc2cc(OCc3ccc(F)cc3)ccc2C1 (stereo not drawn) [Compound 214, 2-[6-[(4-fluorophenyl)methoxy]tetralin-2-yl]oxyacetic acid]
< 6.00 | 5.00 to 6.00 | < 6.00 | O=C(O)CNC1COc2cc(OCCc3c(Cl)cccc3Cl)ccc2C1 (stereo not drawn) [Compound 114, 2-[[7-[2-(2,6-dichlorophenyl)ethoxy]chroman-3-yl]amino]acetic acid]
< 6.00 | 5.00 to 6.00 | < 6.00 | O=C(O)COC1CCc2cc(OCc3ccc(OC(F)(F)F)cc3)ccc2C1 (stereo not drawn) [Compound 203, 2-[6-[[4-(trifluoromethoxy)phenyl]methoxy]tetralin-2-yl]oxyacetic acid]
< 6.00 | 5.00 to 6.00 | < 6.00 | Cc1cc(COc2ccc3c(c2)OCC(N2CC(C(=O)O)C2)C3)ccc1F (stereo not drawn) [Compound 84, 1-[7-[(4-fluoro-3-methyl-phenyl)methoxy]chroman-3-yl]azetidine-3-carboxylic acid]
< 6.00 | 6.00 to 7.00 | < 6.00 | O=C(O)COC1CCc2cc(OCc3cc(F)ccc3F)ccc2C1 (stereo not drawn) [Compound 163, 2-[6-[(2,5-difluorophenyl)methoxy]tetralin-2-yl]oxyacetic acid]
< 6.00 | 5.00 to 6.00 | < 6.00 | O=C(O)C1CN(C2COc3cc(OCCc4ccccc4)ccc3C2)C1 (stereo not drawn) [Compound 226, 1-(7-phenethyloxychroman-3-yl)azetidine-3-carboxylic acid]
< 6.00 | 6.00 to 7.00 | > 6.00 | O=C(O)C1CN(C2COc3cc(OCc4cccc(C(F)(F)F)c4)ccc3C2)C1 (stereo not drawn) [Compound 59, 1-(7-((3-(trifluoromethyl)benzyl)oxy)chroman-3-yl)azetidine-3-carboxylic acid]
< 6.00 | 6.00 to 7.00 | < 6.00 | Cc1cccc(Cl)c1COc1ccc2c(c1)OCC(N1CC(C(=O)O)C1)C2 (stereo not drawn) [Compound 71, 1-(7-((2-chloro-6-methylbenzyl)oxy)chroman-3-yl)azetidine-3-carboxylic acid]
< 6.00 | 6.00 to 7.00 | < 6.00 | O=C(O)COC1CCc2cc(OCc3ccccc3OC(F)(F)F)ccc2C1 (stereo not drawn) [Compound 208, 2-[6-[[2-(trifluoromethoxy)phenyl]methoxy]tetralin-2-yl]oxyacetic]
< 6.00 | 6.00 to 7.00 | < 6.00 | CC(C)C(NC1CCc2cc(OCc3c(Cl)cccc3Cl)ccc2C1)C(=O)O (stereo not drawn) [Compound 37, 2-((6-((2,6-dichlorobenzyl)oxy)-1,2,3,4-tetrahydronaphthalen-2-yl)amino)-3-methylbutanoic acid]
